Values after ≈ are worked out from the molar mass of the structure shown. Values joined by “and” are separate entries in the source; they are usually repeats but may differ in a detail not shown here. Identical values can stand only once.
Tests used:
[1] = Thermodynamic solubility of elafibranor in aqueous medium; format: physicochemical
Protocol: The thermodynamic solubility of the basic elafibranor is studied over a period of 24 hours and 72 hours in various aqueous buffers in the presence or not of surfactants. Batch number EM0274L2 is used for this work. After 24 hours and 72 hours of incubation at ambient temperature (22°−24° C.), the solutions are sampled and then filtered over 0.2 μm polycarbonate filters in flasks for LCMS analyses, and diluting once in DMSO before stirring for 2 minutes (vortex or sonification).

[2] = Solubility test on various elafibranor salts; format: physicochemical; conditions: for Solubility in aqueous medium / Solubility: listed as Elafibranor (GFT505) Amorphous free basic
[3] = all clinical trials; cited from earlier work
[4] = system: non-alcoholic steatohepatitis NASH; conditions: cited from earlier work
[5] = Buffer pH 4.6, ambient temperature (22-24° C.)
[6] = Buffer pH 7.4, ambient temperature (22-24° C.)
[7] = Buffer pH 8.5, ambient temperature (22-24° C.)
[8] = Polyethylene glycol 400, ambient temperature (22-24° C.)
[9] = Propylene glycol, ambient temperature (22-24° C.)

CSc1ccc(C(=O)/C=C/c2cc(C)c(OC(C)(C)C(=O)O)c(C)c2)cc1 [elafibranor, 2-[2,6 dimethyl-4-[3-[4-(methylthio)phenyl]-3-oxo-1(E)-propenyl]phenoxyl]-2-methylpropanoic acid]
Solubility after 24 hours [1, 5]: 44 µg/mL (≈ 0.114 mM)
Solubility after 72 hours [1, 5]: 110 μM and 0.042 mg/ml
Solubility after 24 hours [1, 6]: 194 µg/mL (≈ 0.505 mM)
Solubility after 72 hours [1, 6]: 0.234 mg/mL (≈ 0.609 mM)
Solubility after 24 hours [1, 7]: 1701 µg/mL (≈ 4.42 mM)
Solubility after 72 hours [1, 7]: 1.644 mg/mL (≈ 4.28 mM)
Solubility after 24 hours [1, 8]: 15023 µg/mL (≈ 39.1 mM)
Solubility after 72 hours [1, 8]: 15.774 mg/mL (≈ 41 mM)
Solubility after 24 hours [1, 9]: 12905 µg/mL (≈ 33.6 mM)
Solubility after 72 hours [1, 9]: 13.506 mg/mL (≈ 35.1 mM)
Solubility in an aqueous medium ([1]; in words): low
Effect of addition of cosolvent on solubility ([1]; propylene glycol or PEG 400): significantly improves the solubility
Solubility in aqueous medium ([2]; Buffer pH 4.6, ambient temperature): 44 µg/mL
Solubility in aqueous medium ([2]; Buffer pH 7.4, ambient temperature): 194 µg/mL
Solubility in aqueous medium ([2]; Buffer pH 8.5, ambient temperature): 1701 µg/mL
Solubility ([2]; Polyethylene glycol 400, ambient temperature): 15023 µg/mL
Solubility ([2]; Propylene glycol, ambient temperature): 12905 µg/mL
Solubility (according to Ph. Eur.) ([2]; aqueous medium, ambient temperature, descriptive term): Very low solubility
Tolerance profile [3]: very good tolerance profile
Biochemical markers of hepatic malfunctioning (ALAT, ASAT, γGT, ALP) [4]: improvement

— patent US11185520B2, “Composition comprising at least one water-soluble pharmaceutically acceptable salt of elafibranor having improved intestinal absorption” (NASHPHARM, priority 2016, dated 2021)
